Data as given in patent US20130190407A1, “CALCIUM RECEPTOR-ACTIVE MOLECULES” (NPS Pharmaceuticals, Inc., priority 1991, published 2013).

What was measured:
Type in all cases: cell-based
[1] = target: T1, parathyroid cell calcium receptor (Bos taurus, UniProt P35384); assay: Mobilization of intracellular Ca2+ ([Ca2+]i, fura-2) in bovine parathyroid cells; parameters: Parathyroid glands were obtained from freshly slaughtered calves (12-15 weeks old); endogenous in cells; host or cells: dissociated primary bovine (calf) parathyroid cells; settings: Table 6; bovine parathyroid cells; read-out: EC50 PARATHYROID
T1 sequence (P35384 20-1085): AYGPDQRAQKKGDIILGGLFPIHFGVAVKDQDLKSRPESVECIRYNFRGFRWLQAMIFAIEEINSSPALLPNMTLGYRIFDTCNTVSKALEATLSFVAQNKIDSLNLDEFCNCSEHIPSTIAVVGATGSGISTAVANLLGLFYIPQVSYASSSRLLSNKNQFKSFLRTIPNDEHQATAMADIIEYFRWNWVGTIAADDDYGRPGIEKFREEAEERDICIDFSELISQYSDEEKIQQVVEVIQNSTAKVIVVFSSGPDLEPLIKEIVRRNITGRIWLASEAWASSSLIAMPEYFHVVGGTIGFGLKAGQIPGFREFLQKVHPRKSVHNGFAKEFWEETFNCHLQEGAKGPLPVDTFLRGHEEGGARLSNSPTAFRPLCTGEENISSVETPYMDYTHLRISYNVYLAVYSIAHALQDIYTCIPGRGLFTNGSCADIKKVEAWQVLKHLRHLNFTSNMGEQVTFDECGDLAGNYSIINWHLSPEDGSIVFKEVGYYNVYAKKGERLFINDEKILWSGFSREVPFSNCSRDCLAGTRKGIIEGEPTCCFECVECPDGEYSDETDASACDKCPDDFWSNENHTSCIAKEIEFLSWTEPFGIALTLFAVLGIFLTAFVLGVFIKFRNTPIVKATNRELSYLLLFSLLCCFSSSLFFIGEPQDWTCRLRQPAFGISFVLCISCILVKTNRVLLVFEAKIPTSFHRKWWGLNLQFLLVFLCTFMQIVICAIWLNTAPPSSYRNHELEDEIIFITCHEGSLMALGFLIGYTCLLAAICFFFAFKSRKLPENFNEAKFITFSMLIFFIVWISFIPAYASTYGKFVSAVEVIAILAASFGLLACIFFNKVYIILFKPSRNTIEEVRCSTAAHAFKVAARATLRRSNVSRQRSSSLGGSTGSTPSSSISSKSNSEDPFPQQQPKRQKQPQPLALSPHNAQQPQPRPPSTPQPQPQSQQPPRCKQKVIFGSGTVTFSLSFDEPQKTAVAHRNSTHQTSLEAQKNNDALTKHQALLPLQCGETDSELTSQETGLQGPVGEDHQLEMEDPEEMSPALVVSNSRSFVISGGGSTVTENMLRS
Procedure: This section describes procedures used to obtain and treat parathyroid cells from calves and humans. […] Human parathyroid glands, were obtained from patients undergoing surgical removal of parathyroid tissue for primary or uremic hyperparathyroidism (uremic HPT), and were treated similarly to bovine tissue.
Glands were trimmed of excess fat and connective tissue and then minced with fine scissors into cubes approximately 2-3 mm on a side. Dissociated parathyroid cells were prepared by collagenase digestion and then purified by centrifugation in Percoll buffer. The resultant parathyroid cell preparation was essentially devoid of red blood cells, adipocytes, and capillary tissue as assessed by phase contrast microscopy and Sudan black B staining. Dissociated and purified parathyroid cells were present as small clusters containing 5 to 20 cells.
The cells were then pelleted, resuspended in the same buffer, but lacking the ester, and incubated a further 15 minutes at 37° C. The cells were subsequently washed twice with PCB containing 0.5 mM CaCl2 and 0.5% BSA and maintained at room temperature (about 20° C.) Immediately before use, the cells were diluted five-fold with prewarmed 0.5 mM CaCl2-PCB to obtain a final BSA concentration of 0.1%. The concentration of cells in the cuvette used for fluorescence recording was 1−2×10^6/ml.
The fluorescence of indicator-loaded cells was measured at 37° C. in a spectrofluorimeter (Biomedical Instrumentation Group, University of Pennsylvania, Philadelphia, Pa.) equipped with a thermostated cuvette holder and magnetic stirrer using excitation and emission wavelengths of 340 and 510 nm, respectively. […] Leakage of dye is dependent on temperature and most occurs within the first 2 minutes after warming the cells in the cuvette. Dye leakage increases only very slowly thereafter. To correct the calibration for dye leakage, cells were placed in the cuvette and stirred at 37° C. for 2-3 minutes. The cell suspension was then removed, the cells pelleted, and the supernatant returned to a clean cuvette. […] This estimate was subtracted from the apparent Fmin.

[2] = target: T1, parathyroid cell calcium receptor; assay: Cl- current in Xenopus oocytes injected with bovine parathyroid cell poly(A)+-mRNA; parameters: Whole pieces of gland were used to prepare mRNA that directs the expression of the calcium receptor in Xenopus oocytes; expressed in transfected cells; host or cells: Xenopus laevis oocytes injected with total poly(A)+ mRNA from bovine parathyroid glands; settings: 100 μM
Procedure: (§1) Following incubation, an oocyte was placed into a 100-μl plastic chamber and superfused with MBS at a flow rate of 0.5 ml/min using a peristaltic pump. Test molecules or inorganic polycations were added by rapidly moving the tubing into different buffers. Recording and current-passing electrodes were constructed from thin-wall capillary tubing pulled to a resistance of 1-3 Mohms and filled with 3 M KCl. […] Currents were recorded directly onto a strip chart recorder.
Dissociated bovine parathyroid cells were used to further explore the mechanism of action of NPS R-467 at the receptor level. […] It does, however, elicit responses in parathyroid cells and in oocytes when a small amount of extracellular Ca^2+ is present.

[3] = target: T2, osteoclast calcium receptor (Rattus norvegicus, UniProt P48442); assay: [Ca2+]i (indo-1) in single rat osteoclasts
T2 sequence (P48442 20-1079): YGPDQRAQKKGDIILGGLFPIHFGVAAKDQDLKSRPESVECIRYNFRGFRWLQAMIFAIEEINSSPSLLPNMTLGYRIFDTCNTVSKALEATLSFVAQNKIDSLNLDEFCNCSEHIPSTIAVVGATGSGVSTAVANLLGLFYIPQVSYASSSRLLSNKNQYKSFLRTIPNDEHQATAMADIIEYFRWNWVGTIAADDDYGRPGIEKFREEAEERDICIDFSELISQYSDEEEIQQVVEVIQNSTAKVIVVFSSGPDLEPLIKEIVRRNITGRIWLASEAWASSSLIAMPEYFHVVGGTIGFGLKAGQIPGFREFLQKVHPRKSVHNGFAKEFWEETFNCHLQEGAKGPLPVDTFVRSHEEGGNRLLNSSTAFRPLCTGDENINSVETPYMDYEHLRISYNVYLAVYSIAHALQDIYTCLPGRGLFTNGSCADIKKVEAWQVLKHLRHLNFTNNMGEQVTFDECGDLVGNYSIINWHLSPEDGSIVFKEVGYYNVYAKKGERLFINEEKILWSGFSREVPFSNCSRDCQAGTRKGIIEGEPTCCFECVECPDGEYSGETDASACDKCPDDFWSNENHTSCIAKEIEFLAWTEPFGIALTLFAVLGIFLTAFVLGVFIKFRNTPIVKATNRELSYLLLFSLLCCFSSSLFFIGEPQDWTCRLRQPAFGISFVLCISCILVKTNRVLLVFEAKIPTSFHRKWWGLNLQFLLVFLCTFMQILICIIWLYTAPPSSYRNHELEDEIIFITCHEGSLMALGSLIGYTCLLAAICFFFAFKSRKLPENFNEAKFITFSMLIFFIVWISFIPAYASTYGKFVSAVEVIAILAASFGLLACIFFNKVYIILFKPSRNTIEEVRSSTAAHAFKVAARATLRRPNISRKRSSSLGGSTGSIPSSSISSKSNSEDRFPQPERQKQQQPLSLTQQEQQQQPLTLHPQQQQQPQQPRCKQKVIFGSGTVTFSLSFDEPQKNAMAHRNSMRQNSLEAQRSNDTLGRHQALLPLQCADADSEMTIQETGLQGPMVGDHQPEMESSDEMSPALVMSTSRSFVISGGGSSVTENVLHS

[4] = target: T3, bovine parathyroid cell calcium receptor (Bos taurus, UniProt P35384); assay: Cl- current in Xenopus oocytes injected with BoPCaR 1
T3 construct: isolation of a single clone (BoPCaR 1) with a cDNA insert of 5.3 kb; expressed in transfected cells
T3 sequence (P35384 20-1085): T1 sequence (P35384 20-1085)
Procedure: Several pharmacological and biochemical criteria were used to identify this clone as encoding a bona fide bovine parathyroid Ca^2+ receptor. […] These responses increased markedly over a period of one to four days after injection of the eggs with cRNA prepared from the BoPCaR 1 cDNA. Furthermore, the ranges of the concentrations of the two cations eliciting this response were very similar to those shown previously to act on bovine parathyroid cells in vitro.
Xenopus oocytes were injected with BoPCaR 1, the 5.3 Kb cDNA encoding a bovine parathyroid cell calcium receptor as described in Example 25. After two to three days, Cl^− currents were examined in the oocytes using a two-electrode voltage clamp.
Xenopus oocytes were injected with BoPCaR 1 as described in Example 25. After two to three days, Cl^− currents were examined in the oocytes using two electrode voltage clamp.

calcium receptor = target: T4, calcium receptor (Homo sapiens, UniProt P41180); assay: Cl- current in Xenopus oocytes injected with human parathyroid cell mRNA; settings: hexacyclen 135 μM, neomycin 100 μM, NPS 382 5 mM
T4 construct: poly(A)^+-enriched mRNA from human parathyroid tissue (hyperplastic glands from a case of secondary HPT); expressed in transfected cells; host or cells: Xenopus laevis oocytes injected with poly(A)+ mRNA from hyperplastic human parathyroid glands
T4 sequence (P41180 20-1078): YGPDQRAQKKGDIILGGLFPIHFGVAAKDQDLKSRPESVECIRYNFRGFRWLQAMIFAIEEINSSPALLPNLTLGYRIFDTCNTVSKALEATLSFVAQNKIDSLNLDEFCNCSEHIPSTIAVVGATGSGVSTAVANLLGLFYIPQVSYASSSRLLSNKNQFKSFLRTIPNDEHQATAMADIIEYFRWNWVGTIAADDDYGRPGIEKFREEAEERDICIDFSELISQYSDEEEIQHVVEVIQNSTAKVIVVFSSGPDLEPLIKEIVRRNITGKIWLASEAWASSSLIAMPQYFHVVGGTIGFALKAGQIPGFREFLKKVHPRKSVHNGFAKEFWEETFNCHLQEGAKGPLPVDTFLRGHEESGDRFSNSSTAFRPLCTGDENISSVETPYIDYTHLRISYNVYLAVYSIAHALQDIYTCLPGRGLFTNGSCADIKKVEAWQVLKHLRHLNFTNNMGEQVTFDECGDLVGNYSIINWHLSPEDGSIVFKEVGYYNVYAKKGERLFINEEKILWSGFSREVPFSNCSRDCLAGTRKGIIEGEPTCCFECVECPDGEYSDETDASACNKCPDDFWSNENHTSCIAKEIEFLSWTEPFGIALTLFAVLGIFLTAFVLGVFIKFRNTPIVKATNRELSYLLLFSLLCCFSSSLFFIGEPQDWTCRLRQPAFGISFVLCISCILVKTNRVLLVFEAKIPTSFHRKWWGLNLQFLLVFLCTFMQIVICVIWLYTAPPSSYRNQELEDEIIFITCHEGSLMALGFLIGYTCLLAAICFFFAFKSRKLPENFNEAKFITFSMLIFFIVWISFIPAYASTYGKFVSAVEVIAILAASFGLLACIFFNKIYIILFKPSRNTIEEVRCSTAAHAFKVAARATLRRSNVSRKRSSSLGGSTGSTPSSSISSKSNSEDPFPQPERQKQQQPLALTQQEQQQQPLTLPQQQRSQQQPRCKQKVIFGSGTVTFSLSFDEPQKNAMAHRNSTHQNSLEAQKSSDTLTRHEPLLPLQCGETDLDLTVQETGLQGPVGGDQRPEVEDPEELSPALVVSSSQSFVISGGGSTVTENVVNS
Procedure: Oocytes were injected with poly(A)^+-enriched mRNA from human parathyroid tissue (hyperplastic glands from a case of secondary HPT).
as §1
Using this screen allows one to test for an action directly on the calcium receptor. Oocytes expressing the calcium receptor also responded to several molecules active on intact parathyroid cells when screened as follows. […] This offers rather compelling evidence showing that these molecules act on the calcium receptor or on some other protein intimately associated with its function.

Bovine parathyroid cells = settings: 10 μM isoproterenol 15 min; no pertussis toxin; 2.0 mM Ca2+, 200 μM spermine, 30 μM neomycin B, 2 μg/ml protamine; mean ± SEM
Procedure: This section describes measuring cyclic AMP levels. Cells were incubated as above for PTH secretion studies and at the end of the incubation, a 0.15-ml sample was taken and transferred to 0.85 ml of hot (70° C.) water and heated at this temperature for 5-10 minutes. The tubes were subsequently frozen and thawed several times and the cellular debris sedimented by centrifugation. Portions of the supernatant were acetylated and cyclic AMP concentrations determined by radioimmunoassay.
Bovine parathyroid cells were cultured for 16 hours with or without 100 ng/ml pertussis toxin. […] Each value is the mean±SEM of three experiments.

CC(NCCC(c1ccccc1)c1ccccc1)c1ccccc1 (racemic) [Fendiline, fendiline] was tested, and the EC50 [1] was 15 µM and the Cl- current [2] was “elicits oscillatory increases in Cl^− current”.
With NCCCNCCCCNCCCNCCCN(O)CCCNC(=O)Cc1c[nH]c2ccccc12 [NPS 017, Agatoxin 489] the “EC50 OSTEOCLAST” value ([3]; Table 6, rat osteoclasts, indo-1) was “inactive” and the Cl- current ([4]; 1 mM extracellular Ca2+) was “oscillatory increases in the Cl^− current”.
NCCCN(CCCN)CCCNCCCCNCCCN(CCCN)CCCN [NPS 382, N^1, N^1, N^5, N^14, N^14-tetrakis-(3-aminopropyl)spermine] was tested, and the “mobilization of intracellular Ca2+ in oocytes” value (calcium receptor) was “effective”.
With COc1cccc([C@H](C)NCCCc2ccccc2Cl)c1 [NPS S-568] the “concentration eliciting Cl- current responses” value [4] was 100 µM.
In the case of NCCCCNCCCN [Spermidine, spermidine], the “compounds that caused any large increase in [Ca2+]i” value [3] is reported as “none”.
For NCCCNCCCCNCCCN [Spermine, spermine], the “cyclic AMP (% of control), control” value (Bovine parathyroid cells) was 23 ± 5 % of control.
